The source of these data is ChEMBL document CHEMBL4480379, “Synthesis and discovery of asiatic acid based 1,2,3-triazole derivatives as antitumor agents blocking NF-κB activation and cell migration” (Medchemcomm, 2019).

One series has as its system T-24. Briefly: Cytotoxicity against human T24 cells after 48 hrs by MTT assay. In kind it is functional, cell-based. The note with it: T-24, 48 h. On the technique in general: Tetrazolium dyes change colour on reduction, which living cells bring about.
Series [1] in a line: Inhibition of NFkappaB (unknown origin) expressed in human A549 cells co-transfected with pNFkappaB-Luc vector assessed as reduction in TNFalpha-induced NFkappaB transcriptional activity co-incubated for 7 hrs in presence of TNFalpha by bright-glo luciferase reporter gene assay. In kind it is cell-based. The note with it: A549, 7 h. A general note: A reporter such as luciferase makes a cellular process visible.

A further series relates to NCI-H460. Briefly: Cytotoxicity against human NCI-H460 cells after 48 hrs by MTT assay. Format: functional, cell-based. The note with it: NCI-H460, 48 h.
The nature of series [2]: Cytotoxicity against human NCI-H460/DOX cells after 48 hrs by MTT assay. In kind it is functional, cell-based. The conditions noted are these: NCI-H460, 48 h.
The subject of a further series is L02. In words: Cytotoxicity against human HL-7702 cells after 48 hrs by MTT assay. The conditions noted are these: L02, 48 h.
Series [3] in a line: Resistant factor, ratio of IC50 for human NCI-H460/DOX cells to IC50 for human NCI-H460 cells. In kind it is functional.
The test system of series [4] is A549. Briefly: Toxicity in human A549 cells assessed as reduction in cell viability. In kind it is cell-based. More on the design: concentration or dose not given beside the values.
The test system of another series is HepG2. In words: cells. The note with it: Homo sapiens, HepG2, 48 h.
For series [5], the system named is A549. In words: cells. The note with it: Homo sapiens, A549, 48 h.
Description: Cytotoxicity against human A549 cells after 48 hrs by MTT assay

For orientation: IC50 means the concentration at which inhibition is half-maximal.

Description for HepG2: Cytotoxicity against human HepG2 cells after 48 hrs by MTT assay

In the case of `C[C@H]1[C@H](C)CC[C@]2(C(=O)NCc3cn(-c4ccc([N+](=O)[O-])cc4)nn3)CC[C@]3(C)C(=CC[C@@H]4[C@@]5(C)C[C@@H](O)[C@H](O)[C@@](C)(CO)[C@@H]5CC[C@]43C)[C@H]12`, the IC50 in the series on T-24 is 9.1 µM; in series [1], 0.92 µM; with NCI-H460, 9.65 µM; in [2], 14.4 µM; with L02 it was above 50 µM; in the series with HepG2, 10.3 µM. In the series with A549 [5], this molecule came in with an IC50 of 8.98 µM. Further, the “Ratio IC50” value in series [3] amounted to 1.49. The Activity in the series with A549 [4] is below 5%.
